Values quoted from earlier work as cited in US20140228218A1, “PARAFFINIC OIL AND CLASS B GIBBERELLIN BIOSYNTHESIS INHIBITOR COMPOSITIONS” (SUNCOR ENERGY INC., priority 2011, published 2014).

Tested on: the plant being treated
Settings: in vivo

SMILES: CC(C)(C)[C@@H](O)[C@@H](Cc1ccc(Cl)cc1)n1cncn1 (relative stereo) [paclobutrazol, (±)-(R*,R*)-beta-[(4-chlorophenyl)methyl]-alpha-(1,1-dimethylethyl)-1H-1,2,4-triazole-1-ethanol]
- phytotoxicity to the plant being treated (in words): can cause phytoxicity
